Laboratory results published in PubChem BioAssay (NCI).
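How tested: cells in 96-well plates exposed to compound for 48 hours at five concentrations. TGI is the concentration that stops growth completely.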

Key:
Test in all cases: growth of human tumour cells (NCI), 48 h
A549 NSCLC = system: A549 NSCLC
ACHN renal = system: ACHN renal
BT-549 breast = system: BT-549 breast
CAKI-1 renal = system: CAKI-1 renal
CCRF-CEM leukemia = system: CCRF-CEM leukemia
COLO 205 colon = system: COLO 205 colon
DU-145 prostate = system: DU-145 prostate
EKVX NSCLC = system: EKVX NSCLC
HCT-116 colon = system: HCT-116 colon
HCT-15 colon = system: HCT-15 colon
HL-60(TB) leukemia = system: HL-60(TB) leukemia
HOP-62 NSCLC = system: HOP-62 NSCLC
HS 578T breast = system: HS 578T breast
HT29 colon = system: HT29 colon
IGROV1 ovarian = system: IGROV1 ovarian
KM12 colon = system: KM12 colon
LOX IMVI melanoma = system: LOX IMVI melanoma
M14 melanoma = system: M14 melanoma
MALME-3M melanoma = system: MALME-3M melanoma
MCF7 breast = system: MCF7 breast
MDA-MB-435 = system: MDA-MB-435
MOLT-4 leukemia = system: MOLT-4 leukemia
NCI-H460 lung = system: NCI-H460 lung
NCI-H522 lung = system: NCI-H522 lung
NCI/ADR-RES ovarian = system: NCI/ADR-RES ovarian
OVCAR-3 ovarian = system: OVCAR-3 ovarian
OVCAR-4 ovarian = system: OVCAR-4 ovarian
OVCAR-5 ovarian = system: OVCAR-5 ovarian
OVCAR-8 ovarian = system: OVCAR-8 ovarian
PC-3 prostate = system: PC-3 prostate
SF-268 CNS = system: SF-268 CNS
SF-295 CNS = system: SF-295 CNS
SF-539 CNS = system: SF-539 CNS
SK-MEL-2 melanoma = system: SK-MEL-2 melanoma
SK-MEL-28 melanoma = system: SK-MEL-28 melanoma
SK-OV-3 ovarian = system: SK-OV-3 ovarian
SN12C renal = system: SN12C renal
SNB-19 CNS = system: SNB-19 CNS
SNB-75 CNS = system: SNB-75 CNS
SR leukemia = system: SR leukemia
T-47D breast = system: T-47D breast
TK-10 renal = system: TK-10 renal
U251 CNS = system: U251 CNS
UACC-257 melanoma = system: UACC-257 melanoma
UACC-62 melanoma = system: UACC-62 melanoma
UO-31 renal = system: UO-31 renal
786-0 renal = system: 786-0 renal
A498 renal = system: A498 renal
K-562 leukemia = system: K-562 leukemia
NCI-H226 lung = system: NCI-H226 lung
NCI-H23 lung = system: NCI-H23 lung
RPMI-8226 leukemia = system: RPMI-8226 leukemia
RXF 393 renal = system: RXF 393 renal
SK-MEL-5 melanoma = system: SK-MEL-5 melanoma
SW-620 colon = system: SW-620 colon

Structure (SMILES): CN(CCCNC(=O)c1nn(-c2ccccc2)c2c1ccc1ccccc12)CCCNC(=O)c1nn(-c2ccccc2)c2c1ccc1ccccc12
- TGI (A549 NSCLC): 2.85 µM
- TGI (ACHN renal): 3.17 µM
- TGI (BT-549 breast): 3.04 µM
- TGI (CAKI-1 renal): 2.7 µM
- TGI (CCRF-CEM leukemia): 0.628 µM
- TGI (COLO 205 colon): 3.63 µM
- TGI (DU-145 prostate): 3.92 µM
- TGI (EKVX NSCLC): 3.1 µM
- TGI (HCT-116 colon): 3.13 µM
- TGI (HCT-15 colon): 3.16 µM
- TGI (HL-60(TB) leukemia): 3.07 µM
- TGI (HOP-62 NSCLC): 3.69 µM
- TGI (HS 578T breast): > 100 µM
- TGI (HT29 colon): 3.2 µM
- TGI (IGROV1 ovarian): 2.87 µM
- TGI (KM12 colon): 3.96 µM
- TGI (LOX IMVI melanoma): 2.95 µM
- TGI (M14 melanoma): 3.16 µM
- TGI (MALME-3M melanoma): 3.47 µM
- TGI (MCF7 breast): 3.32 µM
- TGI (MDA-MB-435): 2.92 µM
- TGI (MOLT-4 leukemia): 3.42 µM
- TGI (NCI-H460 lung): 2.97 µM
- TGI (NCI-H522 lung): 3.17 µM
- TGI (NCI/ADR-RES ovarian): 3.53 µM
- TGI (OVCAR-3 ovarian): 2.73 µM
- TGI (OVCAR-4 ovarian): 3.02 µM
- TGI (OVCAR-5 ovarian): 5.24 µM
- TGI (OVCAR-8 ovarian): 3.38 µM
- TGI (PC-3 prostate): 2.77 µM
- TGI (SF-268 CNS): 3.39 µM
- TGI (SF-295 CNS): 3.69 µM
- TGI (SF-539 CNS): 3.62 µM
- TGI (SK-MEL-2 melanoma): 3.15 µM
- TGI (SK-MEL-28 melanoma): 3.01 µM
- TGI (SK-OV-3 ovarian): 3.38 µM
- TGI (SN12C renal): 3.32 µM
- TGI (SNB-19 CNS): 3.29 µM
- TGI (SNB-75 CNS): 2.88 µM
- TGI (SR leukemia): 2.75 µM
- TGI (T-47D breast): 3.78 µM
- TGI (TK-10 renal): 3.58 µM
- TGI (U251 CNS): 3.01 µM
- TGI (UACC-257 melanoma): 3.65 µM
- TGI (UACC-62 melanoma): 3.03 µM
- TGI (UO-31 renal): 2.91 µM

Structure (SMILES): Cc1c2c(n(C)c1C)C(=O)C1C(C2=O)C2(C)c3ccccc3C1(C)c1ccccc12 (stereo not given)
- TGI (786-0 renal): > 100 µM
- TGI (A498 renal): > 100 µM
- TGI (ACHN renal): > 100 µM
- TGI (BT-549 breast): > 100 µM
- TGI (CCRF-CEM leukemia): > 100 µM
- TGI (COLO 205 colon): > 100 µM
- TGI (DU-145 prostate): > 100 µM
- TGI (EKVX NSCLC): > 100 µM
- TGI (HCT-116 colon): > 100 µM
- TGI (HCT-15 colon): > 100 µM
- TGI (HL-60(TB) leukemia): > 100 µM
- TGI (HOP-62 NSCLC): > 100 µM
- TGI (HS 578T breast): > 100 µM
- TGI (HT29 colon): > 100 µM
- TGI (IGROV1 ovarian): > 100 µM
- TGI (K-562 leukemia): > 100 µM
- TGI (KM12 colon): > 100 µM
- TGI (LOX IMVI melanoma): > 100 µM
- TGI (M14 melanoma): > 100 µM
- TGI (MALME-3M melanoma): > 100 µM
- TGI (MCF7 breast): > 100 µM
- TGI (MDA-MB-435): > 100 µM
- TGI (MOLT-4 leukemia): > 100 µM
- TGI (NCI-H226 lung): > 100 µM
- TGI (NCI-H23 lung): > 100 µM
- TGI (NCI-H460 lung): > 100 µM
- TGI (NCI/ADR-RES ovarian): > 100 µM
- TGI (OVCAR-3 ovarian): > 100 µM
- TGI (OVCAR-5 ovarian): > 100 µM
- TGI (OVCAR-8 ovarian): > 100 µM
- TGI (PC-3 prostate): > 100 µM
- TGI (RPMI-8226 leukemia): > 100 µM
- TGI (RXF 393 renal): > 100 µM
- TGI (SF-268 CNS): > 100 µM
- TGI (SF-295 CNS): > 100 µM
- TGI (SF-539 CNS): > 100 µM
- TGI (SK-MEL-2 melanoma): > 100 µM
- TGI (SK-MEL-28 melanoma): > 100 µM
- TGI (SK-MEL-5 melanoma): > 100 µM
- TGI (SK-OV-3 ovarian): > 100 µM
- TGI (SNB-19 CNS): > 100 µM
- TGI (SNB-75 CNS): > 100 µM
- TGI (SR leukemia): > 100 µM
- TGI (SW-620 colon): > 100 µM
- TGI (T-47D breast): > 100 µM
- TGI (TK-10 renal): > 100 µM
- TGI (UACC-257 melanoma): > 100 µM
- TGI (UACC-62 melanoma): > 100 µM
- TGI (UO-31 renal): > 100 µM
